Read-outs that look alike come from different tables or passages of the source.
Assays:
E. coli BW25113 = experiment: MIC, 2-fold broth dilution, E. coli BW25113; format: cell-based, Escherichia coli; settings: Escherichia coli, E. coli BW25113
[1] = test system: Pseudomonas aeruginosa MP 2019; experiment: MIC, 2-fold broth dilution; format: cell-based; settings: MP2019, WT, MDR
[2] = test system: Pseudomonas aeruginosa BAA 2108; experiment: MIC, 2-fold broth dilution; format: cell-based; settings: BAA2108
[3] = test system: Acinetobacter baumannii ATCC17978; experiment: MIC, 2-fold broth dilution; format: cell-based; settings: WT
Experimental: (§1) Luria-Bertani (LB) broth (10 g of Bacto tryptone, 5 g of yeast extract, and 5 g of NaCl per liter; pH 7.0) was used for bacterial growth. The bacterial strains were inoculated overnight at 37° C. Cells were 1:100 subcultured into a fresh 30-ml volume of LB medium and grown at 37° C. to an optical density at 600 nm (OD600) of 0.3. When appropriate, the cells cultures were supplemented with 0.1% L-arabinose or 0.1 mM isopropyl β-d-1-thiogalactopyranoside (IPTG), to induce expression of the “Pore” protein. The cells were cultured up to OD600 of 1.0. The test compounds were dissolved in dimethylsulfoxide (DMSO) to make the final 10 mM stock solution. The minimal inhibitory concentrations (MIC) were determined using the 2-fold broth dilution method (1). The OD600 was measured using a Tecan Spark 10 M microplate reader.

[4] = test system: Enterobacter cloacae ATCC13047; experiment: MIC, 2-fold broth dilution; format: cell-based; settings: WT
Experimental: as §1

[5] = test system: Klebsiella aerogenes ATCC13048; experiment: MIC, 2-fold broth dilution; format: cell-based; settings: WT
Experimental: as §1

[6] = test system: Klebsiella oxytoca ATCC700324; experiment: MIC, 2-fold broth dilution; format: cell-based; settings: WT
Experimental: as §1

[7] = test system: Klebsiella pneumoniae ATCC13883; experiment: MIC, 2-fold broth dilution; format: cell-based; settings: WT
Experimental: as §1

[8] = test system: Pseudomonas aeruginosa PAO1; experiment: MIC, 2-fold broth dilution; format: cell-based; settings: WT
Experimental: as §1

[9] = test system: Pseudomonas aeruginosa 273; experiment: MIC, 2-fold broth dilution; format: cell-based; settings: WT, clinical non MDR
[10] = test system: Pseudomonas aeruginosa 462; experiment: MIC, 2-fold broth dilution; format: cell-based; settings: WT, clinical non MDR
[11] = test system: Pseudomonas aeruginosa 515; experiment: MIC, 2-fold broth dilution; format: cell-based; settings: WT, clinical non MDR
[12] = test system: Acinetobacter baumannii AYE; experiment: MIC, 2-fold broth dilution; format: cell-based
[13] = test system: Acinetobacter baumannii Ab5075; experiment: MIC, 2-fold broth dilution; format: cell-based
[14] = test system: Burkholderia thailandensis; experiment: microbe, parasite or virus in culture; format: cell-based
Yersinia pestis KIM6+ = experiment: microbe, parasite or virus in culture; format: cell-based
[15] = test system: Staphylococcus aureus ATCC 25923; experiment: MIC, 2-fold broth dilution; format: cell-based; settings: ATCC25923, non MDR
[16] = test system: Staphylococcus aureus ATCC 700787; experiment: MIC, 2-fold broth dilution; format: cell-based; settings: ATCC700787
[17] = test system: Klebsiella oxytoca ATCC700324 Pore; experiment: MIC, permeabilized bacteria; format: cell-based
[18] = test system: Pseudomonas aeruginosa PAO1 Δ6-Pore; experiment: MIC, permeabilized bacteria; format: cell-based
[19] = test system: Acinetobacter baumannii AYE ΔB ΔIJK; experiment: MIC, permeabilized bacteria; format: cell-based
[20] = test system: Acinetobacter baumannii Ab5075 ΔIJK; experiment: MIC, permeabilized bacteria; format: cell-based
[21] = test system: Acinetobacter baumannii ATCC17978 Δ3-Pore; experiment: MIC, permeabilized bacteria; format: cell-based
[22] = test system: Burkholderia thailandensis Δ2-Pore; experiment: microbe, parasite or virus in culture; format: cell-based
[23] = Cytotoxicity assay (CellTiter AQueous One Solution, MTS); format: cell-based; settings: human, HEK293 cells, 24 h incubation
Experimental: Cytotoxicity of the compounds was evaluated using the CellTiter AQueous One Solution Cell Proliferation Assay (MTS; Promega) as previously described (2). HEK293 cells were incubated with a 2-fold serially diluted compounds for 24 h at 37° C. with 5% CO2, followed by addition of 20 μL of CellTiter AQueous and further incubated for 4 h at 37° C. The absorbance at 490 nm was recorded using a Tecan Spark 10 M plate reader. All measurements were done in three replicas. The growth curves were then fitted to a sigmoidal equation to determine the cytotoxicity concentration CC50.

[24] = asterisk in column 1-10, read-out: MIC, μM 1-10

Row | SMILES | MIC [1] [µM] | MIC [2] [µM] | MIC [3] [µM] | MIC [4] [µM] | MIC [5] [µM] | MIC [6] [µM] | MIC [7] [µM] | MIC [8] [µM] | MIC [9] [µM] | MIC [10] [µM] | MIC [11] [µM] | MIC [12] [µM] | MIC [13] [µM] | MIC [14] [µM] | MIC (Yersinia pestis KIM6+) [µM] | MIC [15] [µM] | MIC [16] [µM] | MIC [17] [µM] | MIC [18] [µM] | MIC [19] [µM] | also measured
1 | C[n+]1ccc(Nc2ccc(NC(=O)c3ccc(C(=O)Nc4ccc(Nc5cc[n+](C)cc5)cc4)c(OC(F)(F)F)c3)cc2)cc1 [Example 44, 4,4′-((((2-(trifluoromethoxy)terephthaloyl)bis(azanediyl))bis(4,1-phenylene))bis(azanediyl))bis(1-methylpyridin-1-ium)] | 25 | 100 | 3.1 | 25 | 50 | 100 | 25 | 25 | 25 | 50 | 50 | 25 | 25 | > 100 | 1.6 | 0.4 | 0.2 | 50 | 0.4 | 0.1 | MIC (E. coli BW25113; [24]): 1 to 10 µM; MIC [20]: 12.5 µM; MIC [21]: 0.4 µM; MIC [22]: 6.2 µM; CC50 at 24 h [23]: 290 µM
2 | C[n+]1ccc(Nc2ccc(NC(=O)c3ccc(-c4ccc(C(=O)Nc5ccc(Nc6cc[n+](C)cc6)cc5)cc4)cc3)cc2)cc1 [Example 17, 4,4′-(((([1,1′-biphenyl]-4,4′-dicarbonyl)bis(azanediyl))bis(4,1-phenylene))bis(azanediyl))bis(1-methylpyridin-1-ium)] | > 100 | > 100 | 6.2 | 50 | 6.2 | > 100 | 3.1 | 6.2 | 12.5 | 12.5 | > 100 | > 100 | 12.5 | > 100 | 100 | 0.8 | 0.4 | > 100 | 0.2 | 0.2 | MIC (E. coli BW25113; asterisk in column <1, read-out: MIC, μM <1): < 1 µM; MIC [20]: 6.2 µM; MIC [21]: 0.8 µM; MIC [22]: 0.8 µM; CC50 at 24 h [23]: > 1000 µM
3 | C[n+]1ccc(Nc2ccc(NC(=O)c3ccc(C(=O)Nc4ccc(Nc5cc[n+](C)cc5)cc4)c(Cl)c3)cc2)cc1 [Example 20, 4,4′-((((2-chloroterephthaloyl)bis(azanediyl))bis(4,1-phenylene))bis(azanediyl))bis(1-methylpyridin-1-ium)] | 12.5 | > 100 | 3.1 | 12.5 | 12.5 | 25 | 12.5 | 25 | 12.5 | 12.5 | 25 | 25 | 25 | > 100 | 1.6 | 0.8 | 1.6 | 25 | 0.2 | 0.2 | MIC (E. coli BW25113; [24]): 1 to 10 µM; MIC [20]: 25 µM; MIC [21]: 0.8 µM; MIC [22]: 6.2 µM; CC50 at 24 h [23]: > 1000 µM

Reference: patent publication US20240116857A1 (St. Louis University, priority 2022, published 2024)
